The text below walks through data of patent US9394570B2, “Marker for colon cancer and method for detecting colon cancer” (The Chinese University of Hong Kong, priority 2010, dated 2016).

Each structure is given as a SMILES string. “Also recorded” adds a separate entry of the source.

For the test, the system named is TBX5 expression in methylated colon cancer cell lines. Briefly: Demethylation with 5-Aza, TBX5 mRNA expression by RT-PCR. Type of test: cell-based, human. Particulars: 2 μM 5-Aza for 5 days; 4 methylated cell lines with silenced or downregulated TBX5. As to the method: Total RNA was extracted from cell pellets and tissues using TRIzol Reagent according to the manufacturer's instruction (Molecular Research Center, Inc., Cincinnati, Ohio). cDNA was synthesized from 2 μg total RNA using Transcriptor Reverse Transcriptase (Roche Applied Sciences, Indianapolis, Ind.). For semi-quantitative RT-PCR, a 151 bp fragment of the TBX5 gene was amplified for 36 cycles using AmpliTaq Gold DNA polymerase (Applied Biosystems, Foster City, Calif.) as previously reported (Yu et al, Gastro), with β-actin as internal control. The primer sequences of TBX5 are: forward 5′-[…]-3′ (SEQ ID NO:2) and reverse 5′-[…]-3′ (SEQ ID NO:3). Real-time PCR was performed using SYBR Green master mixture on HT7900 system according to the manufactures' instructions (Applied Biosystems).
Cells were seeded at a density of 1×10^6 cells/mL. After 24 hours, cells were treated with 2 μM of the DNA demethylating agent 5-Aza (Sigma-Aldrich, St Louis, Mo.) for 5 days. 5-Aza was replenished every day. Controlled cells were treated with an equivalent concentration of vehicle (DMSO). Cells were then harvested for DNA and RNA extractions.

For the molecule `Nc1ncn([C@H]2C[C@H](O)[C@@H](CO)O2)c(=O)n1` [5-Aza, 5-Aza-2′-deoxycytidine], the “TBX5 mRNA expression after demethylation treatment” value is “restoration of TBX5 expression in all cell lines examined; also recorded: restored”.
